Experimental data reported in ChEMBL document CHEMBL1125497, “Synthesis and anticonvulsant activity of enaminones” (J Med Chem, 1992).

Columns and labels:
Type in all cases: functional, Mus musculus
[1] = Antiepileptic activity in male CF1 mice 30 min after administration measured in neurological toxicity (Tox) test at a dose of 30 mg/kg (no. of animals treated /protected); activity value is 0/4
[2] = Antiepileptic activity in male CF1 mice 30 min after administration measured in subcutaneous pentylenetetrazole (scMet) test at a dose of 300 mg/kg (no. of animals treated /protected); activity value is 0/1
[3] = Antiepileptic activity in male CF1 mice 30 min after administration measured in subcutaneous pentylenetetrazole (scMet) test at a dose of 30 mg/kg (no. of animals treated /protected); activity value is 1/1
[4] = Antiepileptic activity in male CF1 mice 4 hr after administration measured in maximum electroshock seizure(MES) test at a dose of 300 mg/kg (no. of animals treated /protected); activity value is 0/1
[5] = Antiepileptic activity in male CF1 mice 30 min after administration measured in maximum electroshock seizure(MES) test at a dose of 300 mg/kg (no. of animals treated /protected); activity value is 1/1
[6] = Antiepileptic activity in male CF1 mice 30 min after administration measured in maximum electroshock seizure(MES) test at a dose of 30 mg/kg (no. of animals treated /protected); activity value is 0/1
[7] = Antiepileptic activity in male CF1 mice 4 hr after administration measured in maximum electroshock seizure(MES) test at a dose of 30 mg/kg (no. of animals treated /protected); activity value is 0/1
[8] = Antiepileptic activity in male CF1 mice 4 hr after administration measured in neurological toxicity (Tox) test at a dose of 300 mg/kg (no. of animals treated /protected); activity value is 0/2
[9] = Antiepileptic activity in male CF1 mice 4 hr after administration measured in neurological toxicity (Tox) test at a dose of 30 mg/kg (no. of animals treated /protected); activity value is 0/2
[10] = Antiepileptic activity in male CF1 mice 4 hr after administration measured in subcutaneous pentylenetetrazole (scMet) test at a dose of 300 mg/kg (no. of animals treated /protected); activity value is 0/1
[11] = Antiepileptic activity in male CF1 mice 4 hr after administration measured in subcutaneous pentylenetetrazole (scMet) test at a dose of 30 mg/kg; activity value is 0/1
[12] = Dose at which anticonvulsant activity was observed in mice
[13] = Antiepileptic activity in male CF1 mice 30 min after administration measured in neurological toxicity (Tox) test at a dose of 300 mg/kg (no. of animals treated /protected); activity value is 2/4
[14] = Antiepileptic activity in male CF1 mice 30 min after administration measured in subcutaneous pentylenetetrazole (scMet) test at a dose of 100 mg/kg (no. of animals treated /protected); activity value is 1/1
[15] = Antiepileptic activity in male CF1 mice 4 hr after administration measured in maximum electroshock seizure(MES) test at a dose of 100 mg/kg (no. of animals treated /protected); activity value is 0/3
[16] = Antiepileptic activity in male CF1 mice 30 min after administration measured in maximum electroshock seizure(MES) test at a dose of 100 mg/kg (no. of animals treated /protected); activity value is 0/3
[17] = Antiepileptic activity in male CF1 mice 30 min after administration measured in neurological toxicity (Tox) test at a dose of 100 mg/kg (no. of animals treated /protected); activity value is 0/4
[18] = Antiepileptic activity in male CF1 mice 4 hr after administration measured in neurological toxicity (Tox) test at a dose of 100 mg/kg (no. of animals treated /protected); activity value is 0/2
[19] = Antiepileptic activity in male CF1 mice 4 hr after administration measured in subcutaneous pentylenetetrazole (scMet) test at a dose of 100 mg/kg (no. of animals treated /protected); activity value is 0/1

SMILES | Activity [1] | Activity [2] | Activity [3] | Activity [4] | Activity [5] | Activity [6] | Activity [7] | Activity [8] | Activity [9] | Activity [10] | Activity [11] | Dose [12] | Activity [13] | Activity [14] | Activity [15] | Activity [16] | Activity [17] | Activity [18] | Activity [19]
COC(=O)C1C(=O)C=C(Nc2ccc(C)cc2)CC1C (centres undefined) | 0 | 0 | 1 | 0 | 1 | 0 | 0 | 0 | 0 | 0 | 0 | <=100 mg kg-1 | 2 |  |  |  |  |  | 
COC(=O)C1C(=O)C=C(Nc2ccc([N+](=O)[O-])cc2)CC1C (centres undefined) |  |  |  |  |  |  |  |  |  |  |  |  |  | 1 | 0 | 0 | 0 | 0 | 0
